{"source": "paper PMC12396409", "about": "“Screening and hit evaluation of a microbial metabolite library against the pathogenic Plasmodium falciparum and Toxoplasma gondii parasites” (International Journal for Parasitology: Drugs and Drug …, 2025)", "key": {"[1]": {"system": "P. falciparum 3D7 parasites", "experiment": "P. falciparum growth inhibition assay, 1-cycle (72 h treatment), SYBR DNA staining (library screen at 2 μg/mL and dose-response)", "format": "cell-based, Plasmodium falciparum", "details": "for activity at 2 µg/mL: Plasmodium falciparum, 3D7, parasite screen 2 μg/mL"}, "[2]": {"system": "P. falciparum 3D7 parasites", "experiment": "P. falciparum growth inhibition assay, 2-cycle (120 h treatment), delayed-death screen and dose-response", "format": "cell-based, Plasmodium falciparum", "details": "for activity at 2 µg/mL: Plasmodium falciparum, 3D7, parasite screen 2 μg/mL"}, "[3]": {"system": "T. gondii RH strain (RH-Tub-eYFP) tachyzoites", "experiment": "microbe, parasite or virus in culture", "format": "cell-based, Toxoplasma gondii", "details": "72 h; for percent parasite growth at 2 µg/mL: Toxoplasma gondii, parasite screen 2 μg/mL"}, "[4]": {"details": "P. falciparum, 72 h, screen at 2 μg/mL, replicate 1"}, "[5]": {"details": "P. falciparum, 72 h, screen at 2 μg/mL, replicate 2"}, "[6]": {"details": "P. falciparum, 120 h, screen at 2 μg/mL, replicate 1"}, "[7]": {"details": "P. falciparum, 120 h, screen at 2 μg/mL, replicate 2"}, "[8]": {"details": "T. gondii, screen at 2 μg/mL, replicate 1"}, "[9]": {"details": "T. gondii, screen at 2 μg/mL, replicate 2"}, "[10]": {"details": "P. falciparum 3D7, 72 h, library screen at 2 μg/mL, % growth, replicate 1"}, "[11]": {"details": "P. falciparum 3D7, 72 h, library screen at 2 μg/mL, % growth, replicate 2"}, "[12]": {"details": "P. falciparum 3D7, 120 h, library screen at 2 μg/mL, % growth, replicate 1"}, "[13]": {"details": "P. falciparum 3D7, 120 h, library screen at 2 μg/mL, % growth, replicate 2"}, "[14]": {"details": "T. gondii RH, library screen at 2 μg/mL, % growth, replicate 1"}, "[15]": {"details": "T. gondii RH, library screen at 2 μg/mL, % growth, replicate 2"}, "[16]": {"details": "P. falciparum 3D7, 72 h, parasite screen at 2 μg/mL, % growth, replicate 1"}, "[17]": {"details": "P. falciparum 3D7, 72 h, parasite screen at 2 μg/mL, % growth, replicate 2"}, "[18]": {"details": "P. falciparum 3D7, 120 h, parasite screen at 2 μg/mL, % growth, replicate 1"}, "[19]": {"details": "P. falciparum 3D7, 120 h, parasite screen at 2 μg/mL, % growth, replicate 2"}, "[20]": {"details": "T. gondii, parasite screen at 2 μg/mL, % growth, replicate 1"}, "[21]": {"details": "T. gondii, parasite screen at 2 μg/mL, % growth, replicate 2"}}, "note": "Like-named read-outs stand apart in the source and are kept apart here.", "data": [{"smiles": "C=Cc1cc(OC)c2c(c1)c(=O)oc1c2cc(OC)c2c(O)ccc([C@H]3O[C@@H](C)[C@@H](O)[C@](C)(O)[C@@H]3O)c21", "note": "[Chrysomycin A]", "values": [{"measurement": "1) Growth (%) at 72 h", "setting": "[1]; P. falciparum, 2 μg/mL, 72 h", "result": 36.94, "unit": "%"}, {"measurement": "Mean", "setting": "[1]; P. falciparum, 72 h, 2 μg/mL, mean of both replicates, growth (% of control)", "result": 36.94}, {"measurement": "Pf_72h_%Growth_Rep1", "setting": "[1]; [4]", "result": 16.21, "unit": "%"}, {"measurement": "Pf_72h_%Growth_Rep2", "setting": "[1]; [5]", "result": 57.66, "unit": "%"}, {"measurement": "2) Growth (%) at 120 h", "setting": "[2]; P. falciparum, 2 μg/mL, 120 h", "result": -1.07, "unit": "%"}, {"measurement": "Pf_120h_%Growth_Rep1", "setting": "[2]; [6]", "result": 6.31, "unit": "%"}, {"measurement": "Pf_120h_%Growth_Rep2", "setting": "[2]; [7]", "result": -8.44, "unit": "%"}, {"measurement": "Tg_72h_%Growth_Rep1", "setting": "[3]; [8]", "result": 53.94, "unit": "%"}, {"measurement": "Tg_72h_%Growth_Rep2", "setting": "[3]; [9]", "result": 65.86, "unit": "%"}]}, {"smiles": "CCC(C)C1OC2(CCC1C)CC1CC(CC=C(C)C(OC3CC(OC)C(OC4CC(OC)C(O)C(C)O4)C(C)O3)C(C)C=CC=C3COC4C(O)C(C)=CC(C(=O)O1)C34O)O2", "note": "(stereo not drawn) [BIA-I1119]", "values": [{"measurement": "Pf_72h_%Growth_Rep1", "setting": "[1]; [10]", "result": 86.44, "unit": "%"}, {"measurement": "Pf_72h_%Growth_Rep2", "setting": "[1]; [11]", "result": 71.84, "unit": "%"}, {"measurement": "Pf_120h_%Growth_Rep1", "setting": "[2]; [12]", "result": 82.92, "unit": "%"}, {"measurement": "Pf_120h_%Growth_Rep2", "setting": "[2]; [13]", "result": 106.39, "unit": "%"}, {"measurement": "Tg_72h_%Growth_Rep1", "setting": "[3]; [14]", "result": 98.36, "unit": "%"}, {"measurement": "Tg_72h_%Growth_Rep2", "setting": "[3]; [15]", "result": 101.63, "unit": "%"}]}, {"smiles": "CC1(C)[C@H](C(=O)O)N2C(=O)C[C@H]2S1(=O)=O", "note": "[Sulbactam sodium]", "values": [{"measurement": "activity at 2 µg/mL", "setting": "[1]; P. falciparum, 72 h, % growth, replicate 1, read-out: Pf_72h_%Growth_Rep1", "result": 90.2, "unit": "%"}, {"measurement": "activity at 2 µg/mL", "setting": "[1]; P. falciparum, 72 h, % growth, replicate 2, read-out: Pf_72h_%Growth_Rep2", "result": 124, "unit": "%"}, {"measurement": "activity at 2 µg/mL", "setting": "[2]; P. falciparum, 120 h, % growth, replicate 1, read-out: Pf_120h_%Growth_Rep1", "result": 105, "unit": "%"}, {"measurement": "activity at 2 µg/mL", "setting": "[2]; P. falciparum, 120 h, % growth, replicate 2, read-out: Pf_120h_%Growth_Rep2", "result": 104, "unit": "%"}, {"measurement": "percent parasite growth at 2 µg/mL", "setting": "[3]; T. gondii, % growth, replicate 1, read-out: Tg_72h_%Growth_Rep1", "result": 134, "unit": "%"}, {"measurement": "percent parasite growth at 2 µg/mL", "setting": "[3]; T. gondii, % growth, replicate 2, read-out: Tg_72h_%Growth_Rep2", "result": 84.2, "unit": "%"}]}, {"smiles": "COc1cc(C)c(C(=O)O)c(OC)c1", "note": "[BIA-O1659]", "values": [{"measurement": "Pf_72h_%Growth_Rep1", "setting": "[1]; [16]", "result": 84.80, "unit": "%"}, {"measurement": "Pf_72h_%Growth_Rep2", "setting": "[1]; [17]", "result": 98.06, "unit": "%"}, {"measurement": "Pf_120h_%Growth_Rep1", "setting": "[2]; [18]", "result": 91.75, "unit": "%"}, {"measurement": "Pf_120h_%Growth_Rep2", "setting": "[2]; [19]", "result": 145.28, "unit": "%"}, {"measurement": "Tg_72h_%Growth_Rep1", "setting": "[3]; [20]", "result": 135.87, "unit": "%"}, {"measurement": "Tg_72h_%Growth_Rep2", "setting": "[3]; [21]", "result": 85.39, "unit": "%"}]}, {"smiles": "CC=C(C)c1c(Cl)c(O)c(C)c2c1Oc1c(Cl)c(O)c(Cl)c(C)c1C(=O)O2", "note": "[BIA-N1159]", "values": [{"measurement": "Pf_72h_%Growth_Rep1", "setting": "[1]; [16]", "result": 85.21, "unit": "%"}, {"measurement": "Pf_72h_%Growth_Rep2", "setting": "[1]; [17]", "result": 97.34, "unit": "%"}, {"measurement": "Pf_120h_%Growth_Rep1", "setting": "[2]; [18]", "result": 97.37, "unit": "%"}, {"measurement": "Pf_120h_%Growth_Rep2", "setting": "[2]; [19]", "result": 135.76, "unit": "%"}, {"measurement": "Tg_72h_%Growth_Rep1", "setting": "[3]; [20]", "result": 86.78, "unit": "%"}, {"measurement": "Tg_72h_%Growth_Rep2", "setting": "[3]; [21]", "result": 84.63, "unit": "%"}]}, {"smiles": "CCC(C=CC1OC(=O)C=CC1C)=CC(C)CC=CC(C)=CC(C)C(=O)C(C)C(O)C(C)CC(C)=CC(=O)O", "note": "(stereo not drawn) [BIA-L1046]", "values": [{"measurement": "Pf_72h_%Growth_Rep1", "setting": "[1]; [10]", "result": 6.41, "unit": "%"}, {"measurement": "Pf_72h_%Growth_Rep2", "setting": "[1]; [11]", "result": 2.57, "unit": "%"}, {"measurement": "Pf_120h_%Growth_Rep1", "setting": "[2]; [12]", "result": 2.03, "unit": "%"}, {"measurement": "Pf_120h_%Growth_Rep2", "setting": "[2]; [13]", "result": 15.00, "unit": "%"}, {"measurement": "Tg_72h_%Growth_Rep1", "setting": "[3]; [14]", "result": 1.37, "unit": "%"}, {"measurement": "Tg_72h_%Growth_Rep2", "setting": "[3]; [15]", "result": 0.53, "unit": "%"}]}, {"smiles": "CC1=C\\[C@@H](O)CC(=O)Cc2nc(co2)C(=O)N2CCC=C2C(=O)O[C@H](C(C)C)[C@H](C)/C=C/C(=O)NC\\C=C\\1", "note": "[BIA-O1131]", "values": [{"measurement": "Pf_72h_%Growth_Rep1", "setting": "[1]; [16]", "result": 59.89, "unit": "%"}, {"measurement": "Pf_72h_%Growth_Rep2", "setting": "[1]; [17]", "result": 79.42, "unit": "%"}, {"measurement": "Pf_120h_%Growth_Rep1", "setting": "[2]; [18]", "result": 16.87, "unit": "%"}, {"measurement": "Pf_120h_%Growth_Rep2", "setting": "[2]; [19]", "result": 26.94, "unit": "%"}, {"measurement": "Tg_72h_%Growth_Rep1", "setting": "[3]; [20]", "result": 125.71, "unit": "%"}, {"measurement": "Tg_72h_%Growth_Rep2", "setting": "[3]; [21]", "result": 88.67, "unit": "%"}]}, {"smiles": "CCN(CC)CCS(=O)(=O)[C@@H]1CCN2C(=O)c3coc(n3)CC(=O)C[C@H](O)/C=C(C)/C=C/CNC(=O)/C=C/[C@@H](C)[C@@H](C(C)C)OC(=O)[C@@H]12.CS(=O)(=O)O", "note": "[Dalfopristin mesylate, reference compound]", "values": [{"measurement": "1) Growth (%) at 72 h", "setting": "[1]; P. falciparum, 2 μg/mL, 72 h", "result": 45.58, "unit": "%"}, {"measurement": "Pf_72h_%Growth_Rep1", "setting": "[1]; [4]", "result": 55.22, "unit": "%"}, {"measurement": "Pf_72h_%Growth_Rep2", "setting": "[1]; [5]", "result": 35.94, "unit": "%"}, {"measurement": "2) Growth (%) at 120 h", "setting": "[2]; P. falciparum, 2 μg/mL, 120 h", "result": 5.60, "unit": "%"}, {"measurement": "Pf_120h_%Growth_Rep1", "setting": "[2]; [6]", "result": 1.37, "unit": "%"}, {"measurement": "Pf_120h_%Growth_Rep2", "setting": "[2]; [7]", "result": 9.82, "unit": "%"}, {"measurement": "3) Fold change (72 h/120 h)", "setting": "[2]; P. falciparum, growth at 72 h / growth at 120 h, 2 μg/mL", "result": 8.1}, {"measurement": "Tg_72h_%Growth_Rep1", "setting": "[3]; [8]", "result": 40.17, "unit": "%"}, {"measurement": "Tg_72h_%Growth_Rep2", "setting": "[3]; [9]", "result": 68.18, "unit": "%"}]}, {"smiles": "COc1cc(OC)c2c(OC)c3ccoc3nc2c1OC", "note": "[Trimethoxydictamnine, 5,7,8-]", "values": [{"measurement": "Pf_72h_%Growth_Rep1", "setting": "[1]; [4]", "result": 85.08, "unit": "%"}, {"measurement": "Pf_72h_%Growth_Rep2", "setting": "[1]; [5]", "result": 101.79, "unit": "%"}, {"measurement": "Pf_120h_%Growth_Rep1", "setting": "[2]; [6]", "result": 91.88, "unit": "%"}, {"measurement": "Pf_120h_%Growth_Rep2", "setting": "[2]; [7]", "result": 81.51, "unit": "%"}, {"measurement": "Tg_72h_%Growth_Rep1", "setting": "[3]; [8]", "result": 134.56, "unit": "%"}, {"measurement": "Tg_72h_%Growth_Rep2", "setting": "[3]; [9]", "result": 84.32, "unit": "%"}]}]}
